Measured values taken from patent US6872690B2, “Herbicidal 2-alkynyl-pyri (mi) dines” (WYETH, priority 2001, dated 2005).

What was measured:
Test in all cases: Pre-emergence test
Format in all cases: in vivo
Settings in all cases: 3 weeks after treatment
Abutilon theophrasti = test system: Abutilon theophrasti
Description: (§1) To evaluate their herbicidal activity, compounds according to the invention are tested using a representative range of plants:
(§2) The pre-emergence tests involve spraying a liquid formulation of the compound onto the soil in which the seeds of the plant species mentioned above has recently been sown.
(§3) The soil used in the tests is a prepared horticultural loam. The formulations used in the tests are prepared from solutions of the test compounds in acetone containing 0.4% by weight of an alkyl-phenol/ethylene oxide condensate available under the trade mark TRITON X-155. These acetone solutions are diluted with water and the resulting formulations applied at dosage levels corresponding to 0.013 kg, 0.025 kg, 0.100 kg or 0.400 kg of active material per hectare in a volume equivalent to 900 litres per hectare. In these tests untreated sown soil are used as controls. From 2 to 4 weeks after treatment, the tests are terminated and each pot is examined and rated according to the rating system set forth below: […]

Alopecurus myosuroides = test system: Alopecurus myosuroides
Description: as §1, §2, §3

Cassia obtusifolia = test system: Cassia obtusifolia
Description: as §1, §2, §3

Digitaria sanguinalis = test system: Digitaria sanguinalis
Description: as §1, §2, §3

Echinochloa crus-galli = test system: Echinochloa crus-galli
Description: as §1, §2, §3

Galium aparine = test system: Galium aparine
Description: as §1, §2, §3

Glycine max = test system: Glycine max
Description: as §1, §2, §3

Ipomoea hederacea = test system: Ipomoea hederacea
Description: as §1, §2, §3

Lamium purpureum = test system: Lamium purpureum
Description: as §1, §2, §3

Matricaria inodora = test system: Matricaria inodora
Description: as §1, §2, §3

Orysa sativa = test system: Orysa sativa
Description: as §1, §2, §3

Setaria viridis = test system: Setaria viridis
Description: as §1, §2, §3

Stellaria media = test system: Stellaria media
Description: as §1, §2, §3

Triticum aestivum = test system: Triticum aestivum
Description: as §1, §2, §3

## Cc1cc(C#Cc2ccccc2)nc(Oc2cc(C(F)(F)F)nn2C)c1 [Example 1, 4-methyl-6-phenylethynyl-2-(1-methyl-3-trifluoromethylpyrazol-5-yloxy)pyridine]
Abutilon theophrasti; 0.013 kg/ha
  Assessment (pre-emergence application) ABUTH: 4 (4-Injury)
Abutilon theophrasti; 0.100 kg/ha
  Assessment (pre-emergence application) ABUTH: 5 (5-Definite injury)
Abutilon theophrasti; 0.400 kg/ha
  Assessment (pre-emergence application) ABUTH: 9 (9-Complete kill)
Alopecurus myosuroides; 0.013 kg/ha
  Assessment (pre-emergence application) ALOMY: 1 (1-Trace effect)
Alopecurus myosuroides; 0.025 kg/ha
  Assessment (pre-emergence application) ALOMY: 2 (2-Slight effect)
Alopecurus myosuroides; 0.100 kg/ha
  Assessment (pre-emergence application) ALOMY: 4 (4-Injury)
Alopecurus myosuroides; 0.400 kg/ha
  Assessment (pre-emergence application) ALOMY: 8 (8-Approaching complete kill)
Cassia obtusifolia; 0.013 kg/ha
  Assessment (pre-emergence application) CASOB: 1 (1-Trace effect)
Cassia obtusifolia; 0.400 kg/ha
  Assessment (pre-emergence application) CASOB: 8 (8-Approaching complete kill)
Digitaria sanguinalis; 0.013 kg/ha
  Assessment (pre-emergence application) DIGSA: 5 (5-Definite injury)
Digitaria sanguinalis; 0.025 kg/ha
  Assessment (pre-emergence application) DIGSA: 5 (5-Definite injury)
Digitaria sanguinalis; 0.100 kg/ha
  Assessment (pre-emergence application) DIGSA: 9 (9-Complete kill)
Digitaria sanguinalis; 0.400 kg/ha
  Assessment (pre-emergence application) DIGSA: 9 (9-Complete kill)
Echinochloa crus-galli; 0.013 kg/ha
  Assessment (pre-emergence application) ECHCG: 1 (1-Trace effect)
Echinochloa crus-galli; 0.025 kg/ha
  Assessment (pre-emergence application) ECHCG: 4 (4-Injury)
Echinochloa crus-galli; 0.100 kg/ha
  Assessment (pre-emergence application) ECHCG: 5 (5-Definite injury)
Echinochloa crus-galli; 0.400 kg/ha
  Assessment (pre-emergence application) ECHCG: 8 (8-Approaching complete kill)
Galium aparine; 0.013 kg/ha
  Assessment (pre-emergence application) GALAP: 1 (1-Trace effect)
Galium aparine; 0.025 kg/ha
  Assessment (pre-emergence application) GALAP: 2 (2-Slight effect)
Galium aparine; 0.100 kg/ha
  Assessment (pre-emergence application) GALAP: 3 (3-Moderate effect)
Galium aparine; 0.400 kg/ha
  Assessment (pre-emergence application) GALAP: 7 (7-Good herbicidal effect)
Glycine max; 0.100 kg/ha
  Assessment (pre-emergence application) GLXMA: 3 (3-Moderate effect)
Glycine max; 0.400 kg/ha
  Assessment (pre-emergence application) GLXMA: 4 (4-Injury)
Ipomoea hederacea; 0.013 kg/ha
  Assessment (pre-emergence application) IPOHE: 3 (3-Moderate effect)
Ipomoea hederacea; 0.100 kg/ha
  Assessment (pre-emergence application) IPOHE: 4 (4-Injury)
Ipomoea hederacea; 0.400 kg/ha
  Assessment (pre-emergence application) IPOHE: 9 (9-Complete kill)
Lamium purpureum; 0.013 kg/ha
  Assessment (pre-emergence application) LAMPU: 7 (7-Good herbicidal effect)
Lamium purpureum; 0.100 kg/ha
  Assessment (pre-emergence application) LAMPU: 8 (8-Approaching complete kill)
Lamium purpureum; 0.400 kg/ha
  Assessment (pre-emergence application) LAMPU: 8 (8-Approaching complete kill)
Matricaria inodora; 0.013 kg/ha
  Assessment (pre-emergence application) MATIN: 5 (5-Definite injury)
Matricaria inodora; 0.025 kg/ha
  Assessment (pre-emergence application) MATIN: 7 (7-Good herbicidal effect)
Matricaria inodora; 0.100 kg/ha
  Assessment (pre-emergence application) MATIN: 8 (8-Approaching complete kill)
Matricaria inodora; 0.400 kg/ha
  Assessment (pre-emergence application) MATIN: 8 (8-Approaching complete kill)
Orysa sativa; 0.013 kg/ha
  Assessment (pre-emergence application) ORYSA: 1 (1-Trace effect)
Orysa sativa; 0.025 kg/ha
  Assessment (pre-emergence application) ORYSA: 2 (2-Slight effect)
Orysa sativa; 0.100 kg/ha
  Assessment (pre-emergence application) ORYSA: 3 (3-Moderate effect)
Orysa sativa; 0.400 kg/ha
  Assessment (pre-emergence application) ORYSA: 5 (5-Definite injury)
Setaria viridis; 0.013 kg/ha
  Assessment (pre-emergence application) SETVI: 4 (4-Injury)
Setaria viridis; 0.025 kg/ha
  Assessment (pre-emergence application) SETVI: 7 (7-Good herbicidal effect)
Setaria viridis; 0.100 kg/ha
  Assessment (pre-emergence application) SETVI: 8 (8-Approaching complete kill)
Setaria viridis; 0.400 kg/ha
  Assessment (pre-emergence application) SETVI: 9 (9-Complete kill)
Stellaria media; 0.013 kg/ha
  Assessment (pre-emergence application) STEME: 5 (5-Definite injury)
Stellaria media; 0.025 kg/ha
  Assessment (pre-emergence application) STEME: 8 (8-Approaching complete kill)
Stellaria media; 0.100 kg/ha
  Assessment (pre-emergence application) STEME: 9 (9-Complete kill)
Stellaria media; 0.400 kg/ha
  Assessment (pre-emergence application) STEME: 9 (9-Complete kill)
Triticum aestivum; 0.013 kg/ha
  Assessment (pre-emergence application) TRZWA: 0 (0-No effect)
Triticum aestivum; 0.025 kg/ha
  Assessment (pre-emergence application) TRZWA: 0 (0-No effect)
